Measurements reported in the supplement of paper PMC5908809.

Columns and labels:
[1] = tested on: normal NK cells expanded with K562-aAPC; test: percent inhibition of viability; higher = more inhibition; conditions: 72 h, IL-2 2.5 ng/mL
Experimental: (§1)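 Drug sensitivity and resistance testing on K562-aAPC-expanded normal NK cells: 5 concentrations (10-fold steps over a 10,000-fold range), 72 h at 37 °C, viability by CellTiter-Glo normalised to DMSO and benzethonium chloride controls; DSS from the fitted curve.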

DERL-7 (IL-2 2.5 ng/mL) [2] = test: as above; conditions: 72 h
IMC-1 (IL-2 20 ng/mL) [3] = test: as above; conditions: 72 h
KAI3 (IL-2 2.5 ng/mL) [4] = test: as above; conditions: 72 h
KHYG-1 (IL-2 2.5 ng/mL) [5] = test: as above; conditions: 72 h
NK-92 (IL-2 2.5 ng/mL) [6] = test: as above; conditions: 72 h
NK-YS (IL-2 2.5 ng/mL) [7] = test: as above; conditions: 72 h
NKL (IL-2 2.5 ng/mL) [8] = test: as above; conditions: 72 h
SNK-6 (IL-2 2.5 ng/mL) [9] = test: as above; conditions: 72 h
YT (IL-2 2.5 ng/mL) [10] = test: as above; conditions: 72 h
[11] = tested on: normal primary NK cells, pool 1 (3 donors) (IL-2 2.5 ng/mL); test: as above; conditions: 72 h
[12] = tested on: normal primary NK cells, pool 1 (3 donors), resting (IL-2 0 ng/mL); test: as above; conditions: 72 h
[13] = tested on: normal primary NK cells, pool 2 (3 donors) (IL-2 2.5 ng/mL); test: as above; conditions: 72 h
[14] = tested on: normal primary NK cells, pool 3 (3 donors) (IL-2 2.5 ng/mL); test: as above; conditions: 72 h
[15] = tested on: normal NK cells expanded with K562-aAPC; test: drug sensitivity score (DSS) (DSS units); higher = more sensitive; extreme values may be limits of the assay; conditions: 72 h; IL-2 2.5 ng/mL
Experimental: as §1

DERL-7 (IL-2 2.5 ng/mL) [16] = test: as above; conditions: 72 h
IMC-1 (IL-2 20 ng/mL) [17] = test: as above; conditions: 72 h
KAI3 (IL-2 2.5 ng/mL) [18] = test: as above; conditions: 72 h
KHYG-1 (IL-2 2.5 ng/mL) [19] = test: as above; conditions: 72 h
NK-92 (IL-2 2.5 ng/mL) [20] = test: as above; conditions: 72 h
NK-YS (IL-2 2.5 ng/mL) [21] = test: as above; conditions: 72 h
NKL (IL-2 2.5 ng/mL) [22] = test: as above; conditions: 72 h
SNK-6 (IL-2 2.5 ng/mL) [23] = test: as above; conditions: 72 h
YT (IL-2 2.5 ng/mL) [24] = test: as above; conditions: 72 h
[25] = tested on: normal primary NK cells, pool 1 (3 donors) (IL-2 2.5 ng/mL); test: as above; conditions: 72 h
[26] = tested on: normal primary NK cells, pool 1 (3 donors), resting (IL-2 0 ng/mL); test: as above; conditions: 72 h
[27] = tested on: normal primary NK cells, pool 2 (3 donors) (IL-2 2.5 ng/mL); test: as above; conditions: 72 h
[28] = tested on: normal primary NK cells, pool 3 (3 donors) (IL-2 2.5 ng/mL); test: as above; conditions: 72 h

Clc1ccccc1C(c1ccccc1)(c1ccccc1)n1cccn1 [TRAM-34] (max concentration tested 1000 nM)
percent inhibition of viability [%]
Conditions | 0.1 nM | 1 nM | 10 nM | 100 nM | 1000 nM
DERL-7 (IL-2 2.5 ng/mL) [2] | 2.4 | -1.24 | 1.99 | -0.74 | 3.63
IMC-1 (IL-2 20 ng/mL) [3] | -7.73 | 1.38 | 0.84 | 6.67 | 8.82
KAI3 (IL-2 2.5 ng/mL) [4] | -2.69 | 4.59 | -1.47 | 2.61 | 4.51
KHYG-1 (IL-2 2.5 ng/mL) [5] | -1.11 | 0.96 | -3.26 | 0.95 | -0.5
NK-92 (IL-2 2.5 ng/mL) [6] | -8.56 | -5.28 | -2.17 | -14.1 | 11.6
NK-YS (IL-2 2.5 ng/mL) [7] | 1.9 | 0.93 | 2.82 | 2.55 | 8.67
NKL (IL-2 2.5 ng/mL) [8] | -1.68 | -6.27 | 6.64 | 4.13 | 5.01
SNK-6 (IL-2 2.5 ng/mL) [9] | 5.28 | 12.6 | 2.07 | 24 | 3.1
YT (IL-2 2.5 ng/mL) [10] | -3.41 | -5.82 | -7.53 | -11.9 | 12.2
[1] | -6.55 | 1.68 | -0.18 | 9.02 | 12.7
[11] | 3.23 | -13.1 | 1.01 | -11 | -5.83
[12] | -5.83 | -36.5 | -10.7 | -18.8 | -3.17
[13] | -11.6 | -1.76 | 12.1 | -4.19 | 0.97
[14] | -3.16 | -4.73 | 5.06 | -3.53 | 6.24

Conditions | drug sensitivity score
DERL-7 (IL-2 2.5 ng/mL) [16] | 0
IMC-1 (IL-2 20 ng/mL) [17] | 0
KAI3 (IL-2 2.5 ng/mL) [18] | 0
KHYG-1 (IL-2 2.5 ng/mL) [19] | 0
NK-92 (IL-2 2.5 ng/mL) [20] | 0
NK-YS (IL-2 2.5 ng/mL) [21] | 0
NKL (IL-2 2.5 ng/mL) [22] | 0
SNK-6 (IL-2 2.5 ng/mL) [23] | 0
YT (IL-2 2.5 ng/mL) [24] | 0
[15] | 0.49
[25] | 0
[26] | 0
[27] | 0
[28] | 0

Cc1cc(OCc2nnc(SC3CCCC3)n2-c2cccnc2)ccc1-c1ccc(S(C)(=O)=O)cc1 [NMS-873] (max concentration tested 10000 nM)
percent inhibition of viability [%]
Conditions | 1 nM | 10 nM | 100 nM | 1000 nM | 10000 nM
DERL-7 (IL-2 2.5 ng/mL) [2] | 8.88 | 2.79 | 15.8 | 34.8 | 101
IMC-1 (IL-2 20 ng/mL) [3] | 2.03 | 32.2 | 95.6 | 39.2 | 101
KAI3 (IL-2 2.5 ng/mL) [4] | 3.12 | 7.92 | 11.3 | 35.3 | 105
KHYG-1 (IL-2 2.5 ng/mL) [5] | 3.36 | 6 | 38 | 65.7 | 107
NK-92 (IL-2 2.5 ng/mL) [6] | -7.23 | -12.4 | 12.5 | 70.3 | 107
NK-YS (IL-2 2.5 ng/mL) [7] | 6.01 | 11.3 | 46.8 | 84.8 | 107
NKL (IL-2 2.5 ng/mL) [8] | 11.2 | 14.7 | 26 | 52 | 106
SNK-6 (IL-2 2.5 ng/mL) [9] | 0.98 | 31.4 | 15.3 | 33.6 | 101
YT (IL-2 2.5 ng/mL) [10] | -2.33 | 20.6 | 83.1 | 56.4 | 106
[1] | 0.72 | 5.79 | 5.95 | 24.3 | 101
[11] | 6.16 | -1.92 | 22 | 43.5 | 98.7
[12] | -8.11 | -16.4 | 24.5 | 58.2 | 91.2
[13] | -5.68 | 4.07 | 30.6 | 39.7 | 97.8
[14] | -2.38 | 0.99 | 24.8 | 27 | 99.8

Conditions | drug sensitivity score
DERL-7 (IL-2 2.5 ng/mL) [16] | 9.55
IMC-1 (IL-2 20 ng/mL) [17] | 26.4
KAI3 (IL-2 2.5 ng/mL) [18] | 10.4
KHYG-1 (IL-2 2.5 ng/mL) [19] | 17.9
NK-92 (IL-2 2.5 ng/mL) [20] | 14.8
NK-YS (IL-2 2.5 ng/mL) [21] | 22.1
NKL (IL-2 2.5 ng/mL) [22] | 14.6
SNK-6 (IL-2 2.5 ng/mL) [23] | 9.51
YT (IL-2 2.5 ng/mL) [24] | 26.1
[15] | 9.28
[25] | 11.4
[26] | 13.7
[27] | 12.2
[28] | 8.69
